Assay results from patent publication US8391959B2, “Composition for improving efficiency of drug delivery” (Tel HaShomer Medical Research Infrastructure and Services …, priority 2004, dated 2013).

Tested on: striatum of normal Sprague-Dawley (SD) rats
Assay: Cytotoxic tissue response after CED in rat striatum, T2-weighted and diffusion-weighted MRI 24 hours post treatment
Description: The resultant solution was infused into the striatum of normal Sprague-Dawley (SD) rats (males, 250-300 grams). T1-weighted MR images were acquired immediately post treatment to assess the extent of convection. Additionally, T2-weighted and diffusion-weighted MR images were acquired 24 hours post treatment to assess the response of the tissue and its correlation to the extent of convection.
In order to obtain a wide range in volumes of distribution, the infusion times were varied between 17 to 60 minutes. 13 rats were treated with Carboplatin (4 mg/ml, 17 minutes infusion). In order to obtain a wide range in volumes of distributions, in 6 out of those, the composition viscosity was increased by adding sucrose to the solution prior to infusion (Carboplatin 4 mg/ml, sucrose concentration-12%).
Early assessment of tissue response was performed using diffusion-weighted and T2-weighted MR images. The diffusion-weighted images were obtained by acquiring conventional T2-weighted images with the addition of diffusion-weighting gradients that filter out the signal from high mobility water molecules and sensitize the MR images to molecular diffusion/mobility [Stejskal et al. supra]. Regions of accumulated liquids or severe necrosis appear dark in diffusion-weighted MRI, while regions of slow water accumulation, such as in the case of intracellular water accumulation or inflammation, appear brighter.
The diffusion-weighted and T2-weighted MR images were obtained by a General Electric™ 3.0 T MRI machine with 10.4M 1× operating system, gradients intensity of up to 4.3 Gauss/cm and line scan diffusion-weighted imaging [Gudbjartsson et al., “Line scan diffusion imaging”, Magn. Reson. Med. 36:509-519, 1996] acquisition software package. Specially designed animal volume coils of 5 cm diameter were used for data acquisition.
The T2-weighted fast spin echo (FSE) MR images were acquired with: 256×128 matrix, FOV=12×9 cm^2, TR=3000 ms, TE=90 ms, and 2 mm slices with 0.5 mm gap. […]

Structure (SMILES)	histology of en block-resected lesion from rat brain (rat, in vivo)	tissue toxicity (rat, in vivo)	enhancement in diffusion-weighted MR images (cases of efficient convection, 24 hours post treatment)
CC(=O)O[C@H]1C(=O)[C@@]2(C)[C@H]([C@H](OC(=O)c3ccccc3)[C@]3(O)C[C@H](OC(=O)[C@H](O)[C@@H](NC(=O)c4ccccc4)c4ccccc4)C(C)=C1C3(C)C)[C@]1(OC(C)=O)CO[C@@H]1C[C@@H]2O [Taxol®, Taxol]	Severe damage covering most of the striatum is seen with widespread necrosis and early gliotic changes	severe tissue toxicity	
N.N.O=C([O-])C1(C(=O)[O-])CCC1.[Pt+2] [Carboplatin]			significant enhancement
